Patent US9982011B2, “Legumain activated doxorubicin derivative as well as preparation method and application thereof” (priority 2012, dated 2018)

What was measured:
MDA-MB231 cells = test: Efficacy in MDA-MB231 tumor model in nude mice; type: in vivo; conditions: i.p. twice weekly for three weeks, S1, S2 30 mg/kg, doxorubicin hydrochloride 4 mg/kg
Source text: Test purpose: to investigate the anti-tumor efficacy of S1 and S2 via mouse tumor treatment model.
Test drug: S1 and S2 injections, and doxorubicin hydrochloride injection, diluted to corresponding concentrations by physiological saline when testing.
1. Animal: nude mice of 6-8 weeks old, all female.
1) MDA-MB231 cells were purchased from American type culture collection (ATCC) and identified according the specification provided by ATCC.
2) Production of tumor. […] Mice were randomly grouped after the diameter of the tumor reached about 0.3 cm to 0.4 cm. Then treatment began.
According to the clinical application of S1 and S2, drugs were intraperitoneally injected. A dose of 30 mg/kg (<1/2 MTD) was used for the S1 treatment group, 30 mg/kg (<1/2 MTD) for the S2 treatment group, and 4 mg/kg (>1/2 MTD) for doxorubicin hydrochloride. The control group was administered with physiological saline. The drugs were administered twice weekly for three weeks.

BALB/C mice = test: Maximum tolerated dose (MTD) / acute toxicity of a single injection in mice; conditions: single injection; for Mortality rate (%) / Number of dead animal: 6 female BALB/C mice
Source text: Test purpose: to investigate the acute toxicity of the subject new drug formulation via MTD assay by intravenous administration to mice.
Test drug: S1 and S2 injections, diluted to the corresponding concentrations with physiological saline when tested.
Animal: the first class BALB/C mice, weighing 19-21 g and all mice being female.
Method and results: 36 female BALB/C mice weighing 19-21 g were randomly divided into 6 groups according to their body weights, with 6 mice in each group. […] Control tests were performed by injecting 0.2 ml physiological saline or doxorubicin hydrochloride. […] Blood samples were taken on the 3, 5 and 14 days for counting the whole blood cells. Animals were anatomized on day 14 to take the heart, liver, kidney, lung, spleen, and pancreas for HE staining.
The MTD for intravenous administration of a test drug is an important reference index for drug toxicity.

## COc1cccc2c1C(=O)c1c(O)c3c(c(O)c1C2=O)CC(O)(C(=O)CO)CC3OC1CC(NC(=O)C(CC(C)C)NC(=O)C(CC(N)=O)NC(=O)C(C)NC(=O)C(C)NC(=O)CCCCCN2C(=O)C=CC2=O)C(O)C(C)O1 (stereo not shown) [Example S1, EMC-AANL-Doxorubicin]
MDA-MB231 cells; 20 days
  Inhibitory rate of tumor, 20 days: 25.8%
MDA-MB231 cells; 20 days, nude mice
  Size of tumor (mm^3), 20 days: 287.42 ± 30.52 mm^3
MDA-MB231 cells; 38 days
  Inhibitory rate of tumor, 38 days: 68.5%
MDA-MB231 cells; 38 days, nude mice
  Size of tumor (mm^3), 38 days: 678.49 ± 37.7 mm^3
BALB/C mice; 50 mg/kg
  Mortality rate (%): 0%
BALB/C mice; 50 mg/kg, observed 17 days
  Number of dead animal: 0
BALB/C mice; 100 mg/kg
  Mortality rate (%): 0%
  Number of dead animal: 0
BALB/C mice; 150 mg/kg
  Mortality rate (%): 0%
  Number of dead animal: 0
BALB/C mice; 150 mg/kg, mice
  Abnormal behaviors and death observed: no pilo-erection, hair tousle and lackluster, lethargy, stoop, irritable reaction and death were observed
BALB/C mice; 200 mg/kg
  Mortality rate (%): 33.3%
  Number of dead animal: 2
BALB/C mice; 300 mg/kg
  Mortality rate (%): 100%
  Number of dead animal: 5
BALB/C mice; mice
  MTD: > 100 µmol/kg
